The values that follow are results of earlier work, collected in patent US20240383928A1, “PRODUCTION OF DIORGANOTIN DIHALIDES” (priority 2021, published 2024).

The data set relates to mice. Particulars: intraperitoneal injection.

In the case of `[CH3][Sn]([CH3])([CH3])[CH3]` [Sn(CH3)4, tetramethyl tin], the “2-hr. LD50” value is 140 mg/kg and the “24-hr. LD50” value is 18 mg/kg.

Take `C[CH2][Sn]([CH2]C)([CH2]C)[CH2]C` [Sn(C2H5)4]: the “2-hr. LD50” value is 660 mg/kg and the “24-hr. LD50” value was 130 mg/kg. As usually defined, the LD50 is the dose expected to kill half of the subjects tested. As for `CC[N+](CC)(CC)CC.[Cl-]` [N(C2H5)4Cl], for the setting “time not stated, all animals that survived for 25 minutes recovered”, the LD50 is 60 mg/kg.
